Legend:
Format in all cases: cell-based
PBMCs = experiment: CTG (CellTiter-Glo) viability assay in PBMCs; settings: Homo sapiens, PBMC, LPS and nigericin stimulated
Experimental: (§1) Human peripheral blood mononuclear cells (PBMCs), consisting of lymphocytes (T, B and NK cells), monocytes and dendritic cells, were freshly isolated from human peripheral blood from healthy donors. Cells were obtained through an IRB approved donor program by iXCells Biotechnologies where all the donors were tested for bacterial and viral infections. Cells were purified from peripheral blood using ficoll gradient centrifugation.
(§2) Fresh or cryopreserved PMBCs were seeded in V-bottom 96-well plate at 0.5-1×10^5 cells per well and incubated overnight at 37° C. with 5% CO2 in RPMI 1640 medium with GlutaMAX supplement, 4.5 g/L D-glucose, 10% Fetal Bovine Serum (FBS), […] Sodium Pyruvate, 1% Penicillin/Streptomycin, 10 mM HEPES and 0.05 mM of β-mercaptoethanol. Freshly isolated or cryopreserved KCs cells were seeded in flat-bottom 96-well plates at 0.6-1.5×10^5 cells/well and incubated overnight at 37° C. 5% CO2 in RPMI 1640 Medium with GlutaMAX supplement, FBS, 1% Penicillin/Streptomycin and 10 mM HEPES. The following day, the cells were primed with 100 ng/mL of lipopolysaccharides (LPS; Sigma Aldrich) in FBS-free RPMI 1640 for 3 h. After the priming step, the media was removed and PBMCs were pre-incubated with serial concentrations of test compounds (0.00017-10 uM) or vehicle (DMSO) for 30 min in FBS-free media prior to addition of the NLRP3 activator. Cells were then stimulated with 10 uM Nigericin (Sigma Aldrich; InvivoGen) for 1.5 h. Plates were centrifuged at 1,500 rpm for 3 minutes to pellet cells and supernatant was transferred into new plates for subsequent experiments.
Viability of compound treated cells was measured using CellTiter-Glo® assay (Promega, Madison, Wis.) that measures the ATP content of cells which is proportional to the number of live cells within a well. This is a counter-screen to establish that the reduction of IL-1β levels in LPS and nigericin stimulated and compound treated cells is not due to cytotoxicity, but rather through the inhibition of the inflammasome pathway. Compounds inhibiting NRLP3 inflammasome activation ultimately increase the viability of LPS and nigericin stimulated cells by blocking NLRP3 mediated pyroptosis that would otherwise lead to cell lysis.

NLRP3 inflammasome [1] = target: T1, NLRP3 inflammasome (Homo sapiens, UniProt Q96P20); experiment: NLRP3 inflammasome activation assay in PBMCs, IL-1β release (ELISA / HTRF); parameters: were freshly isolated from human peripheral blood from healthy donors; StemCells Technologies; host or cells: primary human PBMCs, LPS-primed, nigericin-stimulated; settings: LPS primed
T1 sequence (Q96P20 whole entry): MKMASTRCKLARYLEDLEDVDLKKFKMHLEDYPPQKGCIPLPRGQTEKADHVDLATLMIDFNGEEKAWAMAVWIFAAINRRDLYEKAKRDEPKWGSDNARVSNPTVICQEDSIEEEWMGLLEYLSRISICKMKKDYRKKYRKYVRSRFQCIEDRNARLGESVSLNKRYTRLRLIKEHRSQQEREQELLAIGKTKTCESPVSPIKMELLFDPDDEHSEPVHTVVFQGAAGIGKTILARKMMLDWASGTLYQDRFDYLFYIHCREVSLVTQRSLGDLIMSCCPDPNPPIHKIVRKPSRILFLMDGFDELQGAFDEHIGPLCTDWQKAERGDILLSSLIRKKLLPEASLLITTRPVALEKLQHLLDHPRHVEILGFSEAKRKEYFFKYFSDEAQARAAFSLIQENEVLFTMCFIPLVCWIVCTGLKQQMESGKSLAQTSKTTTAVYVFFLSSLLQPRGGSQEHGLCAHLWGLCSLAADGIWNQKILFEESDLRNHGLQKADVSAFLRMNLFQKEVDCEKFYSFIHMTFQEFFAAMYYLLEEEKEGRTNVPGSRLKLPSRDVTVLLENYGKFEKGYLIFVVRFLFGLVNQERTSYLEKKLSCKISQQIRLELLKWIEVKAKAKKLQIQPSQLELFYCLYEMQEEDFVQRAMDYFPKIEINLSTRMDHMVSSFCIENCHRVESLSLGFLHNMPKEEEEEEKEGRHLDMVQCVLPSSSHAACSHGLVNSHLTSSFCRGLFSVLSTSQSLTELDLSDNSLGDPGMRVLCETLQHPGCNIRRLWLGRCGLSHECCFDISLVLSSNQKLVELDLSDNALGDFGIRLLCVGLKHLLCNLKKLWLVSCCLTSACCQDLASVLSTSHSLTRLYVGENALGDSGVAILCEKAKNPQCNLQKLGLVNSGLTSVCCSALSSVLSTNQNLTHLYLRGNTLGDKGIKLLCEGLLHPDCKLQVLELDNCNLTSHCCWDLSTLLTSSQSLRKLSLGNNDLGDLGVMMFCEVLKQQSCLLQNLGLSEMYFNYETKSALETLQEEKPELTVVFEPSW
Experimental: Some of the following assays were used to determine the inhibitory activity of the compounds on the NLRP3 inflammasome using a common inflammasome activation stimuli—nigericin.
as §1, §2
For ELISA assays cells were seeded into 96-well plates. Post study, supernatants were removed and the levels of mature IL-1β, IL18 and TNFα (Quantikine ELISA, R&D systems) were measured in cell conditioned media by ELISA according to manufacturer's instructions.
Human frozen PBMCs were purchased from StemCells Technologies. Cells were rapidly thawed in 37° C. water bath and resuspended in fresh assay media consisting of RPMI 1640 Medium containing 1% sodium pyruvate, 10 mM HEPES, 2.5 g/L glucose and 55 μM 2-Mercaptoethanol. Cell density was adjusted to 8.1×10^5 cells/mL. Cells were primed by adding lipopolysaccharide (Invivogen Ultrapure lipopolysaccharide from E. coli, tlrl-3pelps) at a final concentration of 100 ng/mL in cell suspension. 37 μL of cell suspension with LPS was seeded per well of a 384 well plate and incubated for 3 hours at 37° C. and 5% CO2. After priming, PBMCs were preincubated with serially diluted test compounds with starting concentration of 40 μM followed by 2-fold dilution for a 20-point curve or vehicle (DMSO) for 30 min in assay media at 37° C. and 5% CO2. Cells were then stimulated with 10 μM nigericin (Invivogen, tlrl-nig-5) for 90 min at 37° C. and 5% CO2 to activate NLRP3 dependent inflammasome pathway and IL-1β release in cell culture supernatant. Cells were centrifuged at 1200 RPM for 1 min and 40 μL of supernatant was transferred into fresh plates and stored at −80° C. until IL-1β analysis.
16 μL of supernatant was added to white 384 well HTRF plates, followed by addition of 4 μL of HTRF cocktail in each well. Plates were quickly centrifuged, sealed and incubated overnight at room temperature. Next day, HTRF signal was read on a Pherastar and ratio of 665/620 was calculated based on manufacturer's protocol to obtain concentration of IL-1β in cell culture supernatant.

NLRP3 inflammasome [2] = target: T1, NLRP3 inflammasome; experiment: THP-1 ASC-GFP speck assay; parameters: host or cells: THP-1 ASC-GFP cells, PMA-differentiated, LPS-primed, nigericin-stimulated; settings: THP-1 ASC-GFP cells, PMA differentiated, LPS primed, 10 μM nigericin; read-out: THP1 ASC Speck IC50
Summary of the method: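 PMA-differentiated (500 ng/ml, overnight) THP-1 ASC-GFP cells primed with 1 μg/mL LPS for 3 h, preincubated 30 min with compound (top 40 μM, 2-fold, 20 points), then stimulated with 10 μM nigericin for 90 min at 37 °C. After fixation and Hoechst staining, imaging gave the percentage of cells bearing a GFP ASC speck.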

[3] = 10 uM nigericin, read-out: PBMC IL-1 β IC50
[4] = 10 μM nigericin, read-out: PBMC IL-1β IC50

Row | SMILES | IC50 (PBMCs) [nM] | IC50 (NLRP3 inflammasome [1]; [3]) [nM] | IC50 (NLRP3 inflammasome [1]; [4]) [nM] | IC50 (NLRP3 inflammasome [2]) [nM]
1 | NS(=O)(=NC(=O)Nc1c2c(c(F)c3c1CCC3)CCC2)c1cnn2c1OCCC2 (stereo not shown) | < 100 | < 100 | – | –
2 | Cn1cc(S(N)(=O)=NC(=O)Nc2c3c(cc4c2CCC4)CCC3)cn1 (stereo not shown) | 100 to 1000 | 100 to 1000 | – | –
3 | CC1(C)COc2c(S(N)(=O)=NC(=O)Nc3c4c(cc5c3CCC5)CCC4)cnn2C1 (stereo not shown) | < 100 | < 100 | – | –
4 | CN=S(=O)(NC(=O)Nc1c2c(cc3c1CCC3)CCC2)c1cnn2c1OCCC2 (stereo not shown) | > 10000 | > 10000 | – | –
5 | N=S(=O)(NC(=O)Nc1c2c(cc3c1CCC3)CCC2)c1cnn(CC2CC2)c1 (stereo not shown) | 100 to 1000 | 100 to 1000 | – | –
6 | CO[C@@H]1COc2c(S(N)(=O)=NC(=O)Nc3c4c(cc5c3CCC5)CCC4)cnn2C1 (mixture of isomers) [Example 2, (6S)—N′-((1,2,3,5,6,7-hexahydro-s-indacen-4-yl)carbamoyl)-6-methoxy-6,7-dihydro-5H-pyrazolo[5,1-b][1,3]oxazine-3-sulfonimidamide] | 100 | – | 24 | –
7 | CC(C)c1cc(F)cc(C(C)C)c1NC(=O)N=S(N)(=O)c1cnn2c1OCCC2 (racemic) [Example 3, N′-((4-fluoro-2,6-diisopropylphenyl)carbamoyl)-6,7-dihydro-5H-pyrazolo[5,1-b][1,3]oxazine-3-sulfonimidamide] | 176 | – | 410 | –
8 | NS(=O)(=NC(=O)Nc1c2c(c(F)c3c1CCC3)CCC2)c1cnn2c1OCCC2 (racemic) [Example 4, N′-((8-fluoro-1,2,3,5,6,7-hexahydro-s-indacen-4-yl)carbamoyl)-6,7-dihydro-5H-pyrazolo[5,1-b][1,3]oxazine-3-sulfonimidamide] | 35 | – | 50 | –
9 | Cn1cc(S(N)(=O)=NC(=O)Nc2c3c(cc4c2CCC4)CCC3)cn1 (racemic) [Example 5, N′-((1,2,3,5,6,7-hexahydro-s-indacen-4-yl)carbamoyl)-1-methyl-1H-pyrazole-4-sulfonimidamide] | 648 | – | 1020 | –
10 | CC1(C)COc2c(S(N)(=O)=NC(=O)Nc3c4c(cc5c3CCC5)CCC4)cnn2C1 (racemic) [Example 6, N′-((1,2,3,5,6,7-hexahydro-s-indacen-4-yl)carbamoyl)-6,6-dimethyl-6,7-dihydro-5H-pyrazolo[5,1-b][1,3]oxazine-3-sulfonimidamide] | 3 | – | 14 | –
11 | COC1CN(C2COc3c(S(N)(=O)=NC(=O)Nc4c5c(c(F)c6c4CCC6)CCC5)cnn3C2)C1 (single isomer, unassigned) [Example 42] | – | – | 5 | 18
12 | COC1CN(C2COc3c(S(N)(=O)=NC(=O)Nc4c5c(c(F)c6c4CCC6)CCC5)cnn3C2)C1 (single isomer, unassigned) [Example 43] | – | – | 430 | 1900
13 | CN(C)[C@@H]1COc2c([S@](N)(=O)=NC(=O)Nc3c4c(c(F)c5c3CCC5)CCC4)cnn2C1 (single isomer, unassigned) [Example 44] | – | – | 86 | 450
14 | CN(C)[C@@H]1COc2c([S@@](N)(=O)=NC(=O)Nc3c4c(c(F)c5c3CCC5)CCC4)cnn2C1 (single isomer, unassigned) [Example 45] | – | – | 0.7 | 11
15 | NS(=O)(=NC(=O)Nc1c2c(c(F)c3c1CCC3)CCC2)c1cnn2c1OCC(NCCF)C2 (single isomer, unassigned) [Example 46] | – | – | 7 | 81
16 | NS(=O)(=NC(=O)Nc1c2c(c(F)c3c1CCC3)CCC2)c1cnn2c1OC[C@@H](NCCF)C2 (single isomer, unassigned) [Example 47] | – | – | 330 | 1700

Row | SMILES | IC50 (PBMCs) [nM] | IC50 (NLRP3 inflammasome [1]; [3]) [nM] | IC50 (NLRP3 inflammasome [1]; [4]) [nM] | IC50 (NLRP3 inflammasome [2]) [nM]
17 | COc1cc(C(C)C)c(NC(=O)N=S(N)(=O)c2cnn3c2OC[C@@H](N2CC(OC)C2)C3)c(C(C)C)n1 (single isomer, unassigned) [Example 49] | – | – | 490 | 400
18 | CNC1COc2c(S(N)(=O)=NC(=O)Nc3c(C(C)C)cc(OC)nc3C(C)C)cnn2C1 (single isomer, unassigned) [Example 50] | – | – | 200 | 430
19 | CNC1COc2c(S(N)(=O)=NC(=O)Nc3c(C(C)C)cc(OC)nc3C(C)C)cnn2C1 (single isomer, unassigned) [Example 51] | – | – | > 10000 | 17000
20 | COc1cc(C(C)C)c(NC(=O)N=S(N)(=O)c2cnn3c2OCC(OC)C3)c(C(C)C)n1 (single isomer, unassigned) [Example 52] | – | – | 15100 | > 20000
21 | COc1cc(C(C)C)c(NC(=O)N=S(N)(=O)c2cnn3c2OCC(OC)C3)c(C(C)C)n1 (single isomer, unassigned) [Example 53] | – | – | 470 | 1200
22 | COCCNC1COc2c(S(N)(=O)=NC(=O)Nc3c4c(cc5c3CCC5)CCC4)cnn2C1 (single isomer, unassigned) [Example 54] | – | – | 330 | 360
23 | COCCNC1COc2c(S(N)(=O)=NC(=O)Nc3c4c(cc5c3CCC5)CCC4)cnn2C1 (single isomer, unassigned) [Example 55] | – | – | > 10000 | 7200
24 | CNCCOC1COc2c(S(N)(=O)=NC(=O)Nc3c4c(cc5c3CCC5)CCC4)cnn2C1 (single isomer, unassigned) [Example 56] | – | – | > 10000 | > 20000
25 | NC1COc2c(S(N)(=O)=NC(=O)Nc3c4c(cc5c3CCC5)CCC4)cnn2C1 (single isomer, unassigned) [Example 58] | – | – | > 10000 | 5500
26 | CC1CCOc2c(S(N)(=O)=NC(=O)Nc3c4c(cc5c3CCC5)CCC4)cnn2C1 (single isomer, unassigned) [Example 64] | – | – | > 20000 | > 20000
27 | CC1CCOc2c(S(N)(=O)=NC(=O)Nc3c4c(cc5c3CCC5)CCC4)cnn2C1 (single isomer, unassigned) [Example 66] | – | – | > 20000 | > 20000
28 | CC1CCOc2c(S(N)(=O)=NC(=O)Nc3c4c(cc5c3CCC5)CCC4)cnn2C1 (single isomer, unassigned) [Example 67] | – | – | 220 | 1400
29 | N#CNS(=O)(=NC(=O)Nc1c2c(cc3c1CCC3)CCC2)c1cnn2c1OCCC2 (single isomer, unassigned) [Example 68] | – | – | 380 | 330
30 | N[C@@H]1COc2c([S@@](N)(=O)=NC(=O)Nc3c4c(cc5c3CCC5)CCC4)cnn2C1 [Example 59, (S,6S)-6-amino-N′-((1,2,3,5,6,7-hexahydro-s-indacen-4-yl)carbamoyl)-6,7-dihydro-5H-pyrazolo[5,1-b][1,3]oxazine-3-sulfonimidamide] | – | – | 95 | 260
31 | CN[C@@H]1COc2c(S(=N)(=O)NC(=O)Nc3c4c(cc5c3CCC5)CCC4)cnn2C1 (stereo partly shown) [drawing 673] | – | 100 to 1000 | – | –

Reference: patent publication US12234245B2, “Sulfonimidamide compounds as inhibitors of interleukin-1 activity” (Genentech, Inc., priority 2018, dated 2025)
